Data taken from PubChem BioAssay (NCI).
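Here, GI50 denotes the concentration required for 50% inhibition of growth. TGI is the concentration that stops growth completely.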

Legend:
Assay in all cases: NCI anticancer screen, dose series, 384-well format
[1] = system: 786-0 renal
[2] = system: A498 renal
[3] = system: A549 NSCLC
[4] = system: ACHN renal
[5] = system: BT-549 breast
[6] = system: CAKI-1 renal
[7] = system: CCRF-CEM leukemia
[8] = system: COLO 205 colon
[9] = system: DU-145 prostate
[10] = system: EKVX NSCLC
[11] = system: HCC-2998 colon
[12] = system: HCT-15 colon
[13] = system: HL-60(TB) leukemia
[14] = system: HOP-62 NSCLC
[15] = system: HOP-92 NSCLC
[16] = system: HS 578T breast
[17] = system: HT29 colon
[18] = system: IGROV1 ovarian
[19] = system: K-562 leukemia
[20] = system: KM12 colon
[21] = system: LOX IMVI melanoma
[22] = system: M14 melanoma
[23] = system: MALME-3M melanoma
[24] = system: MCF7 breast
[25] = system: MDA-MB-231 breast
[26] = system: MDA-MB-435 melanoma
[27] = system: MDA-MB-468 breast
[28] = system: MOLT-4 leukemia
[29] = system: NCI-H226 lung
[30] = system: NCI-H23 lung
[31] = system: NCI-H322M lung
[32] = system: NCI-H460 NSCLC
[33] = system: NCI-H522 lung
[34] = system: NCI/ADR-RES ovarian
[35] = system: OVCAR-3 ovarian
[36] = system: OVCAR-4 ovarian
[37] = system: OVCAR-5 ovarian
[38] = system: OVCAR-8 ovarian
[39] = system: PC-3 prostate
[40] = system: RPMI-8226 leukemia
[41] = system: RXF 393 renal
[42] = system: SF-268 CNS
[43] = system: SF-295 CNS
[44] = system: SF-539 CNS
[45] = system: SK-MEL-28 melanoma
[46] = system: SK-MEL-5 melanoma
[47] = system: SK-OV-3 ovarian
[48] = system: SN12C renal
[49] = system: SNB-19 CNS
[50] = system: SNB-75 CNS
[51] = system: SR leukemia
[52] = system: SW-620 colon
[53] = system: T-47D breast
[54] = system: TK-10 renal
[55] = system: UACC-257 melanoma
[56] = system: UACC-62 melanoma
[57] = system: UO-31 renal

CCOCC1(COCC)CCC(c2[nH]ncc2CN(C)CCNC)CC1
GI50 [1]: 10.4 µM | TGI [1]: > 100 µM | GI50 [2]: 5.94 µM | TGI [2]: > 100 µM | GI50 [3]: 18.1 µM | TGI [3]: > 100 µM | GI50 [4]: 2.03 µM | TGI [4]: > 100 µM | GI50 [5]: 32.7 µM | TGI [5]: > 100 µM | GI50 [6]: 3.69 µM | TGI [6]: > 100 µM | GI50 [7]: 53.3 µM | TGI [7]: > 100 µM | GI50 [8]: 20.5 µM | TGI [8]: > 100 µM | GI50 [9]: > 100 µM | TGI [9]: > 100 µM | GI50 [10]: > 100 µM | TGI [10]: > 100 µM | GI50 [11]: 16.3 µM | TGI [11]: 38.3 µM | GI50 [12]: 18.6 µM | TGI [12]: > 100 µM | GI50 [13]: 0.123 µM | TGI [13]: 2.68 µM | GI50 [14]: 71 µM | TGI [14]: > 100 µM | GI50 [15]: 35.2 µM | TGI [15]: > 100 µM | GI50 [16]: > 100 µM | TGI [16]: > 100 µM | GI50 [17]: 10.7 µM | TGI [17]: 35.8 µM | GI50 [18]: 2.77 µM | TGI [18]: > 100 µM | GI50 [19]: 4.11 µM | TGI [19]: > 100 µM | GI50 [20]: > 100 µM | TGI [20]: > 100 µM | GI50 [21]: 29.6 µM | TGI [21]: > 100 µM | GI50 [22]: 17.6 µM | TGI [22]: 44.7 µM | GI50 [23]: 8.61 µM | TGI [23]: 36.3 µM | GI50 [24]: 29.9 µM | TGI [24]: > 100 µM | GI50 [25]: 42.5 µM | TGI [25]: > 100 µM | GI50 [26]: 58.7 µM | TGI [26]: > 100 µM | GI50 [27]: 1.81 µM | TGI [27]: 35.6 µM | GI50 [28]: 20 µM | TGI [28]: > 100 µM | GI50 [29]: > 100 µM | TGI [29]: > 100 µM | GI50 [30]: > 100 µM | TGI [30]: > 100 µM | GI50 [31]: > 100 µM | TGI [31]: > 100 µM | GI50 [32]: 8.56 µM | TGI [32]: > 100 µM | GI50 [33]: 96.8 µM | TGI [33]: > 100 µM | GI50 [34]: > 100 µM | TGI [34]: > 100 µM | GI50 [35]: 1.75 µM | TGI [35]: > 100 µM | GI50 [36]: > 100 µM | TGI [36]: > 100 µM | GI50 [37]: 28.5 µM | TGI [37]: > 100 µM | GI50 [38]: > 100 µM | TGI [38]: > 100 µM | GI50 [39]: > 100 µM | TGI [39]: > 100 µM | GI50 [40]: 2.52 µM | TGI [40]: 57.4 µM | GI50 [41]: > 100 µM | TGI [41]: > 100 µM | GI50 [42]: > 100 µM | TGI [42]: > 100 µM | GI50 [43]: 6.65 µM | TGI [43]: > 100 µM | GI50 [44]: 90.4 µM | TGI [44]: > 100 µM | GI50 [45]: 11.3 µM | TGI [45]: 29.3 µM | GI50 [46]: 11.5 µM | TGI [46]: 34.5 µM | GI50 [47]: 47.1 µM | TGI [47]: > 100 µM | GI50 [48]: 64.8 µM | TGI [48]: > 100 µM | GI50 [49]: > 100 µM | TGI [49]: > 100 µM | GI50 [50]: > 100 µM | TGI [50]: > 100 µM | GI50 [51]: 0.386 µM | TGI [51]: 9.85 µM | GI50 [52]: > 100 µM | TGI [52]: > 100 µM | GI50 [53]: 27.3 µM | TGI [53]: > 100 µM | GI50 [54]: 43.4 µM | TGI [54]: > 100 µM | GI50 [55]: 14.8 µM | TGI [55]: 30.2 µM | GI50 [56]: 12.6 µM | TGI [56]: 33.3 µM | GI50 [57]: > 100 µM | TGI [57]: > 100 µM
